The record followed here is ChEMBL document CHEMBL1151501, “A benzisothiazolone class of potent, selective mechanism-based inhibitors of human leukocyte elastase” (Bioorg Med Chem Lett, 1994).

Test [1] addresses T1, Neutrophil elastase (Homo sapiens) (UniProt P08246).
T1 sequence (whole entry): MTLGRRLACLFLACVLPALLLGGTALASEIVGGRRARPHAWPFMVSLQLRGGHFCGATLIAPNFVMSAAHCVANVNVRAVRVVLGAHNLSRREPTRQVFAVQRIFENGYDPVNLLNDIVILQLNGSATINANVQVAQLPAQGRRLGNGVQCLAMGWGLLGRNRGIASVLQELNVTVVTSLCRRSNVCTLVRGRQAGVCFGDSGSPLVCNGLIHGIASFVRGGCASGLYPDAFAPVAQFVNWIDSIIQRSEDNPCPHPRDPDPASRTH
Description: Inhibition of human leukocyte elastase (HLE) expressed as K reactivation rate

In test [2] the target is T1, Neutrophil elastase (Homo sapiens). The source holds these as a separate data set.
Description: Inhibition of human leukocyte elastase (HLE) expressed as K inactivation rate
The target in test [3] is T2, Neutrophil elastase (Homo sapiens, UniProt P08246).
T2 sequence (P08246 whole entry): T1 sequence (whole entry)
Put plainly: Potency of Inhibition of human leukocyte elastase (HLE) expressed as apparent binding constant.

With `CC(=O)OCN1C(=O)c2ccccc2S1(=O)=O`, in test [1], the Kreact is 0.0001 s⁻¹. In test [2], this compound gave a K inact of 630 M⁻¹ s⁻¹. `O=C1c2c(Br)cccc2S(=O)(=O)N1CSc1nnnn1-c1ccccc1` had a Kreact in test [1] of 0.00036 s⁻¹. `Cn1nnnc1SCN1C(=O)c2ccccc2S1(=O)=O` registered a Kreact in test [1] of 0.0001 s⁻¹. This compound gave a K inact in test [2] of 1000 M⁻¹ s⁻¹.

`CC(C)Oc1cccc2c1C(=O)N(CSc1nnnn1-c1ccccc1)S2(=O)=O` yielded a Kreact in test [1] of 0.00016 s⁻¹. The compound further gave a K inact in test [2] of 8900 M⁻¹ s⁻¹. The matching figures for `Cn1cnnc1SCN1C(=O)c2ccccc2S1(=O)=O`: 4.7e-05 s⁻¹ and 190 M⁻¹ s⁻¹. As to `O=C1c2ccccc2S(=O)(=O)N1CSc1nnnn1C1CCCCC1`, in test [1], the Kreact worked out at 0.0001 s⁻¹. The compound further came in with a K inact in test [2] of 2500 M⁻¹ s⁻¹.

On to `O=C1c2c(-c3ccccc3)cccc2S(=O)(=O)N1CSc1nnnn1-c1ccccc1`, for which, in test [1], the Kreact was 0.0005 s⁻¹. The K inact in test [2] was found to be 5800 M⁻¹ s⁻¹. For `CCOc1cccc2c1C(=O)N(CSc1nnnn1-c1ccccc1)S2(=O)=O`, in that order: 0.00014 s⁻¹ and 45300 M⁻¹ s⁻¹. As to `CC(C)(C)c1cccc2c1C(=O)N(CSc1nnnn1-c1ccccc1)S2(=O)=O`, in test [3], the Ki amounted to 2000 nM.
